Data published in patent publication US8492560B2, “Quinazoline derivatives as angiogenesis inhibitors” (AstraZeneca AB, priority 1999, dated 2013).

| SMILES | melting point |
| --- | --- |
| COc1cc2c(Oc3cnc4[nH]ccc4c3)ncnc2cc1OCCCN1CCCC1 [Example 182, 6-methoxy-7-(3-(pyrrolidin-1-yl)propoxy)-4-(1H-pyrrolo[2,3-b]pyridin-5-yloxy)quinazoline] | 184 to 185.5 °C |
| COc1cc2c(Oc3ccc4[nH]c(C)cc4c3)ncnc2cc1OCC1CCN(C)C(=O)C1 (stereo not shown) [Example 268, 6-methoxy-4-(2-methylindol-5-yloxy)-7-(1-methyl-2-oxopiperidin-4-ylmethoxy)quinazoline] | 250 to 251 °C |
| COc1cc2c(Oc3ccc4[nH]cc(C)c4c3)ncnc2cc1OCCCN1CCCC1 [Example 179, 6-methoxy-4-(3-methylindol-5-yloxy)-7-(3-(pyrrolidin-1-yl)propoxy)quinazoline] | 75 to 77 °C |
| COc1cc2c(Oc3cccc4[nH]ccc34)ncnc2cc1OCCCN1CCCCC1 [Example 169, 4-(indol-4-yloxy)-6-methoxy-7-(3-piperidinopropoxy)quinazoline] | 80 to 82 °C |
